{
  "source": "patent US6348447B1",
  "about": "“Pharmaceutical composition for the treatment of functional dyspepsia and/or irritable bowel syndrome and new use of substances therein” (priority 1998, dated 2002)",
  "key": {"[1]": {"tested_on": "dyspepsia symptoms", "conditions": "dysmotility-like and gastroesophageal reflux-like dyspepsia; cited from earlier work"}, "[2]": {"tested_on": "pancreatic secretion", "conditions": "in vivo; cited from earlier work"}, "[3]": {"tested_on": "gastric emptying", "conditions": "in man; cited from earlier work"}, "[4]": {"tested_on": "gastric acid secretion", "conditions": "in man; cited from earlier work"}, "[5]": {"tested_on": "gastric emptying and small intestinal motility", "assay": "Gastric emptying and small intestinal motility in the rat", "type": "in vivo"}, "[6]": {"tested_on": "small bowel motility in humans with IBS", "assay": "Small bowel manometry in fasted IBS patients during intravenous GLP-1 infusion", "type": "in vivo, human", "conditions": "for Contraction frequency / Contraction amplitude / Contraction area / Motility index Ln (Sum (mm Hg*s)/min): 4 h, fasted IBS patients; for Contraction frequency: angle of Treitz; for Contraction frequency / Contraction amplitude / Contraction area / Motility index Ln (Sum (mm Hg*s)/min) / Adjusted MMC: mean ±SEM n=6; for Adjusted MMC: premature MMC at onset subtracted", "protocol": "Experiments were carried out in 12 subjects fulfilling the Rome-criteria for IBS. In the fasted subjects a small bowel manometry tube was passed through the nose and located in antroduodenal region under fluoroscopy. Then, small bowel manometry was recorded for 8 hours in the fasted state, and for an additional 40 min after a meal (320 kcal). During the first 4-hour period of the recording saline was administered intravenously. During the second 4-hour period GLP-1 was given intravenously either at a dose of 1.2 pmol/kg/min (72 pmol/kg/h) (n=6) or 2.5 pmol/kg/min (150 pmol/kg/h) (n=6) with the infusion continued over the 40-minute meal period. GLP-1 was administered as an intravenous infusion at a dose of 1.2 or 2.5 pmol/kg/min. The compound was diluted from a stock solution of GLP-1 (Polypeptide, Wolfenbüttel, Hannover, Germany) 100 nmol/ml prepared according to general guidelines with sterilization filtration and endotoxin test, and divided in 10 ml ampoules.\nFor each patient the solution for infusion was constituted according to body weight. The dose to be given was multiplied by body weight, resulting in an individual dosing, expressed as pmol/min. The calculated total dose (according to extrapolated 250 ml infusion time) was taken from the stock solution and diluted in 250 ml infusion volume of saline (Natriumklorid 9 mg/ml, Pharmacia & Upjohn, Stockholm, Sweden). The infusion was then given at a rate of 1 ml/min with a constant infusion pump (Volumetric infusion pump, model 960, Imed, Oxon, UK) over 4 hours (240 min).\nAs this premature MMC cycle was considered to be due to an immediate effect of GLP-1 during a build-up of a steady state concentration in the circulation, an adjusted MMC prevalence during GLP-1 infusion was calculated by subtracting the premature MMC at onset from the remaining MMC observed during infusion of GLP-1.\nIn detail, the following results were obtained from the motility recordings (reference point: angle of Treitz; values are mean ±SEM of n=6 in each group; statistical evaluation by the non-parametric Wilcoxon signed-rank test): […]"}},
  "note": "Entries after “also recorded” stand apart in the source; their conditions may differ.",
  "data": [
    {"compound": "COc1cc(N)c(Cl)cc1C(=O)NC1CCN(CCCOc2ccc(F)cc2)CC1OC", "note": "(stereo not shown) [cisapride]", "values": [
      {"measurement": "Symptomatic relief, share of studied patients", "setting": "[1]", "result": "60-90%"}
    ]},
    {"compound": "glucagon-like peptide-1 [GLP-1]", "values": [
      {"measurement": "Inhibition of pancreatic secretion", "setting": "[2]", "result": "about 45%"},
      {"measurement": "Slowing of gastric emptying", "setting": "[3]", "result": 50, "unit": "%"},
      {"measurement": "Inhibition of gastric acid secretion", "setting": "[4]", "result": 43, "unit": "%"},
      {"measurement": "Action on gastric emptying and small intestinal motility (in words)", "setting": "[5]", "result": "profound inhibitory action"},
      {"measurement": "Time after onset of infusion to start of an MMC in the duodenum", "setting": "[6]; GLP-1 1.2 pmol/kg/min i.v.", "result": "≤ 14.2 ± 3.8", "unit": "min"},
      {"measurement": "Contraction frequency", "setting": "[6]; GLP-1 1.2 pmol/kg/min i.v.", "result": "1.7 ± 0.4 #/min"},
      {"measurement": "Contraction amplitude", "setting": "[6]; GLP-1 1.2 pmol/kg/min i.v.", "result": "24.7 ± 1.6", "unit": "mm Hg"},
      {"measurement": "Contraction area", "setting": "[6]; GLP-1 1.2 pmol/kg/min i.v.", "result": "33.4 ± 3.2", "unit": "mm Hg*s"},
      {"measurement": "Motility index Ln (Sum (mm Hg*s)/min)", "setting": "[6]; GLP-1 1.2 pmol/kg/min i.v.", "result": "4.7 ± 0.3"},
      {"measurement": "Adjusted MMC", "setting": "[6]; GLP-1 1.2 pmol/kg/min i.v.", "result": "0.0 ± 0.0 #/4 h"},
      {"measurement": "Time after onset of infusion to start of an MMC in the duodenum", "setting": "[6]; GLP-1 2.5 pmol/kg/min i.v.", "result": "≤ 12.0 ± 2.7", "unit": "min"},
      {"measurement": "Contraction frequency", "setting": "[6]; GLP-1 2.5 pmol/kg/min i.v.", "result": "0.9 ± 0.2 #/min"},
      {"measurement": "Contraction amplitude", "setting": "[6]; GLP-1 2.5 pmol/kg/min i.v.", "result": "23.6 ± 2.5", "unit": "mm Hg"},
      {"measurement": "Contraction area", "setting": "[6]; GLP-1 2.5 pmol/kg/min i.v.", "result": "30.5 ± 5.3", "unit": "mm Hg*s"},
      {"measurement": "Motility index Ln (Sum (mm Hg*s)/min)", "setting": "[6]; GLP-1 2.5 pmol/kg/min i.v.", "result": "3.8 ± 0.8"},
      {"measurement": "Adjusted MMC", "setting": "[6]; GLP-1 2.5 pmol/kg/min i.v.", "result": "0.2 ± 0.2 #/4 h"},
      {"measurement": "Effect on motor activity in the small bowel (overall result in words)", "setting": "[6]; IBS patients, fasted state", "result": "able to reduce the motor activity; also recorded: dose-dependent reduction of motor activity"},
      {"measurement": "Patients in whom a premature MMC was started in the duodenum", "setting": "[6]; in each group (1.2 and 2.5 pmol/kg/min)", "result": "four out of six"}
    ]}
  ]
}
